# Assay results published in patent US11866695B2, “Methods and systems and related compositions for mixtures separation with a solid matrix” (CALIFORNIA INSTITUTE OF TECHNOLOGY, priority 2019, dated 2024).
# Columns and labels:
# Format in all cases: biochemical
# [1] = test system: qPCR spiked with 5×104 copies λ phage DNA; assay: qPCR reaction inhibition by dilutions of NA extraction kit buffers; conditions: for Avg Cq: 9 replicates, non-detects assigned 40 cycles
# Experimental: (§1) qPCR reactions contained 1× Bio-Rad SsoFast Supermix (1725201, Bio-Rad), PCR primers (IDT) at […] each, and were supplemented with nuclease-free water up to 10 μL. Each 96-well plate (thin-wall clear well, HSP9641, Bio-Rad) was sealed (Microseal B, MSB1001, Bio-Rad) and briefly spun in a Mini Plate Spinner Centrifuge (14-100-141, Fisher Scientific). Heating and real-time imaging were performed on the Bio-Rad CFX-96 Touch Real-Time PCR Detection System by heating to 95° C. for 5 min, cycling 40 times between 95° C. for 15 s, 60° C. for 15 s, and 72° C. for 20 s, and taking a melt-curve analysis. For the E. coli DNA dilution experiment, qPCR was run for 60 cycles. Fluorescence readings were taken at the end of each extension step. Quantification cycle (Cq) was determined when the software's automated baseline corrected fluorescence reached 200 RFU.
# Confidence intervals were calculated assuming the populations to be normally distributed and using a t statistic. For buffer inhibition experiments, statistical analysis was performed by a 1-tailed unequal variance t-test (N=9) comparing the water condition (control) to each buffer concentration (H1: the mean is delayed). For the subsequent experiments, a 2-tailed unequal variance t-test (H1: the means are different) was used. Non-detects were assigned the maximum possible Cq measurement of 40 cycles or a TTP of 46.7 min to indicate the lack of amplification. Although this approach introduces some bias into the analysis, it is believed this is the best representation for handling non-detects (other alternatives include excluding the non-detects or assigning non-detect values to the average of those that amplified).
# These two commercial kits in particular were chosen because they both utilize minimal protocols (lysis, wash, elute) with no added steps (e.g. bacterial pellet spins, proteinase K, lysozyme, DNase/RNase, filtration, etc.). Specifically, an experiment was conducted to identify the concentration at which each buffer inhibits qPCR and LAMP. First, buffers were added at half-log dilutions (from 10% down to 0.032%) into λ phage spiked qPCR or LAMP reactions (1 μL diluted buffer, 1 μL template, 8 μL reaction mix).
# [2] = test system: λ phage DNA; assay: Zymo Quick-DNA/RNA MagBead extraction with air dry replaced by TPW, qPCR; conditions: 10× dilution of eluent into qPCR
# Experimental: as §1
# The Zymo Quick-DNA/RNA Viral MagBead (R2140) was tested. For the Zymo MagBead kit, 200 μL sample was mixed with 200 μL Zymo 2×DNA/RNA Shield, 4 μL Proteinase K, and 800 μL Zymo Viral DNA/RNA Buffer. 1204 μL was added to each tube, mixed with 20 μL MagBinding Beads, and placed on an UltraRocker Rocking Platform (1660709EDU, Bio-Rad, Hercules, Calif., USA) for 10 min at max speed. Tubes were transferred to a DynaMag-2 magnetic rack (12321D, Thermo Fisher Scientific) and manufacturer instructions was followed for the remainder of the protocol. […]
# [3] = test system: λ phage DNA; assay: Zymo Quick-DNA/RNA MagBead extraction with air dry replaced by TPW, LAMP; conditions: 10× dilution of eluent into LAMP
# Experimental: LAMP reactions contained the following concentrations of reagents: 1× Isothermal Amplification Buffer (20 mM Tris-HCl pH 8.8, 10 mM (NH4)2SO4, 50 mM KCl, 5 mM MgSO4, 0.1% Tween-20, B0537S, NEB, Ipswich, Mass., USA), an additional 2 mM MgSO4 (B1003S, NEB), 1.4 mM deoxynucleotide mix (N0447L or N0446S, NEB), […] Invitrogen Syto-9 (S34854, Thermo Fisher Scientific), […] Invitrogen bovine serum albumin (15561020, Thermo Fisher Scientific), 320 U/mL WarmStart Bst 2.0 (M0538L, NEB), and were supplemented with nuclease-free water (not DEPC-Treated, 4387936, Thermo Fisher Scientific) up to 10 μL. LAMP primers (Integrated DNA Technologies (IDT), Coralville, Iowa, USA) were designed, ordered, and added at NEB's recommended concentrations of […] FIP/BIP, 0.2μM F3/B3, and […] LoopF/B.
# Each 96-well plate was sealed and briefly spun. Heating and real-time imaging were performed on the Bio-Rad CFX-96 Touch Real-Time PCR Detection System (1855195, Bio-Rad). Each 96-well plate was cooled to 12° C. for 2 min, held at 68° C. for 47 min with 35-second fluorescence read intervals, and a melt-curve analysis was performed. For the E. coli DNA dilution experiment, the 68° C. step was held for 105 min. Time-to-positive (TTP) was determined when the software's automated baseline corrected fluorescence reached 1000 RFU.
# The Zymo Quick-DNA/RNA Viral MagBead (R2140) was tested. […]
SMILES,Avg Cq ([1]; 0.03% buffer in qPCR),ΔCq ([1]; 0.03% buffer vs water condition (0%)),Avg Cq ([1]; 0.1% buffer in qPCR),ΔCq ([1]; 0.1% buffer vs water condition (0%)),Avg Cq ([1]; 0.32% buffer in qPCR),ΔCq ([1]; 0.32% buffer vs water condition (0%)),Avg Cq ([1]; 1% buffer in qPCR),ΔCq ([1]; 1% buffer vs water condition (0%)),Avg Cq ([1]; 3.2% buffer in qPCR),ΔCq ([1]; 3.2% buffer vs water condition (0%)),Avg Cq ([1]; 10% buffer in qPCR),ΔCq ([1]; 10% buffer vs water condition (0%)),cycle delay vs manufacturer protocol [2],TTP improvement [3]
"CCO [Ethanol, ethanol]",20.1 cycles,0.0 cycles,20.2 cycles,0.1 cycles,20.2 cycles,0.1 cycles,20.1 cycles,0.0 cycles,20.6 cycles,0.5 cycles,27.5 cycles,7.4 cycles,,
CCCCCCCCCCCO [1-undecanol],,,,,,,,,,,,,1.1 cycle,0.7 min
